pEC50: −log10 of the molar value.
Tests used:
hFXR = target: T1, hFXR (Homo sapiens, UniProt Q96RI1); test: In Vitro FXR Assay (TK); type: cell-based; details: transfected CV-1 cells (hFXR, hRXR, TK-ECRE-luc), 18 hrs incubation, luminescence
T1 construct: expressed in transfected cells; host or cells: CV-1 cells
T1 sequence (Q96RI1 1-486): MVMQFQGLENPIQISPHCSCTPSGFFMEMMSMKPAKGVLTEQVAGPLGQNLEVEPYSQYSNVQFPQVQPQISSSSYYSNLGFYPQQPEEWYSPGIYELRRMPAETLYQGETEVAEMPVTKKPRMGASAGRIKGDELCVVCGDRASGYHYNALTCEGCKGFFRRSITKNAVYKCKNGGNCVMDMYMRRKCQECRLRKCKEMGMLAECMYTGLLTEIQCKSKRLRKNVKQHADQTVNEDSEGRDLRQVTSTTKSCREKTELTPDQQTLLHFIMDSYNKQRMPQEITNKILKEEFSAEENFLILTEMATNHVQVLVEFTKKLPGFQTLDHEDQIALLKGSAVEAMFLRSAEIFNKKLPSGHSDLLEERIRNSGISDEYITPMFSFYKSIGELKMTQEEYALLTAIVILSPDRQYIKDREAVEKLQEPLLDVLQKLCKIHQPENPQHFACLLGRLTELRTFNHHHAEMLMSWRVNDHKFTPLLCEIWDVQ
T1 sequence (P19793 1-462 partner): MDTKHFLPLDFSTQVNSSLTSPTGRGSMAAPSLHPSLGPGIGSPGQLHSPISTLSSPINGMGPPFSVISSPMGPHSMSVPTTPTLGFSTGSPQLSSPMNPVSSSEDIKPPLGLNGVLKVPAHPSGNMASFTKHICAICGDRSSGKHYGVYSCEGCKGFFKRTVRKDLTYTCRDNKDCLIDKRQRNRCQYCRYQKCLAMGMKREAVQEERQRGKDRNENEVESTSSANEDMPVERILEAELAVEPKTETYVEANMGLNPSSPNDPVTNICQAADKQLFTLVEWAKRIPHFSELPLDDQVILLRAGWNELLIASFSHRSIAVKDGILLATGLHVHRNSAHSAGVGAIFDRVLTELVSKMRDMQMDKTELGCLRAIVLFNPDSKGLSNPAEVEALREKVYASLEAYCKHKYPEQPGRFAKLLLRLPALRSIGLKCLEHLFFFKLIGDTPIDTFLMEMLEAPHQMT
Protocol: CV-1 cells were seeded at a density of 2,000,000 cells in a T175 flask with DMEM+10% charcoal double-stripped FBS and incubated at 37° C. in 5% CO2 for 18 h (O/N).
After 18 h of incubation, the medium in the T175 flask was changed with fresh DMEM+10% charcoal super-stripped serum. In a polypropylene tube, 2500 μL OptiMEM (Life Technologies, Cat #31985-062) was combined with expression plasmids for hFXR, hRXR, TK-ECRE-luc and pCMX-YFP. The tube was then briefly vortexed and incubated at room temperature for 5 minutes. Transfection reagent (X-tremeGENE HP from Roche, Cat #06 366 236 001) was added to the OptiMEM/plasmid mixture vortexed and incubated at room temperature for 20 minutes. Following incubation, the transfection reagent/DNA mixture complex was added to cells in the T175 flask and the cells were incubated at 37° C. in 5% CO2 for 18 h (O/N).
Compound 1 was serially diluted in DMSO and added to transfected CV-1 cells. The cells were then incubated for 18 hrs. The next day cells were lysed and examined for luminescence. Compound 1 TK hFXR: EC50≤0.01 μM.

FXR = target: T2, FXR (Homo sapiens, UniProt Q96RI1); details: published clinical studies, higher administered doses; cited from earlier work
T2 sequence (Q96RI1 1-486): T1 sequence (Q96RI1 1-486)

Row | pEC50 (hFXR) | Structure (SMILES) | adverse side effects (FXR)
1 | ≥ 8.00 | COc1ccc(C23CCC(CN(c4cc(-c5cnn(C(C)(C)C)c5)ccn4)C(=O)[C@H]4CC[C@H](OC(=O)N5CC(O)C5)CC4)(CC2)CC3)cc1C [Compound 1, 4-((4-(1-(tert-butyl)-1H-pyrazol-4-yl)pyridin-2-yl)((4-(4-methoxy-3-methylphenyl)bicyclo[2.2.2]octan-1-yl)methyl)carbamoyl)cyclohexyl 3-hydroxyazetidine-trans-1-carboxylate] | –
2 | – | CC[C@H]1[C@@H](O)[C@@H]2[C@H](CC[C@]3(C)[C@@H]([C@H](C)CCC(=O)O)CC[C@@H]23)[C@@]2(C)CC[C@@H](O)C[C@@H]12 [OCA, Obeticholic acid] | adverse side effects at higher administered doses, such as pruritis, increased LDL cholesterol and liver toxicity
